{"source": "patent US20010010922A1", "about": "“CLONING AND USES OF THE GENETIC LOCUS BCL-6” (priority 1994, published 2001)", "key": {"[1]": {"test_system": "BCL-6", "experiment": "MEK-2E mediated degradation of BCL-6 in transfected 293T cells, Western blot", "type": "cell-based", "conditions": "293T cells transfected with BCL-6 and MEK-2E; inhibitor 50 μM added 8 hrs after transfection", "experimental": "(§1) FIGS. 22A-22B MAPK-induced BCL-6 degradation is mediated by the ubiquitin/proteasome pathway. (FIG. 22A) Western blot analysis of BCL-6 proteins in 293T cells transfected with BCL-6 in the absence or presence of co-transfected MEK-2E treated with 0.2% DMSO (lanes 1-3), 50 μM Calpain inhibitor II (lanes 4-6), or 50 μM MG132 (lanes 7-9) (added 8hrs after transfection). (FIG. 22B) 293T cells were transfected with BCL-6, His-Ub, and MEK-2E in the absence (lanes 1-4) or presence of MG132 (lanes 5-8). Cell lysates were immunoprecipitated with anti-BCL-6 antibodies (N-70-6) and the immunoprecipitants were analyzed by 6% SDS-PAGE followed by Western blot analysis using anti-ubiquitin antibodies.\n293T cells, grow in DMEM, 10% FBS, were transfected transiently with various DNA vectors using standard calcium phosphate precipitation methods. […]\n(§2) Total RNA were isolated from cells by using Trizol-reagents (GIBCO-BRL) and equal amounts of RNA were separated on 1% formaldehyde-agarose gel. […] For Ramos cells and their stable transfectants (untreated or treated), equal amounts of protein were analyzed by 8% or 10% SDS-PAGE, and subsequently by Western blot analysis using anti-BCL-6 (N-70-6), anti-ERK2 (C-14) or anti-HA (12CA5) antibodies at 1:3000, 1:1000 or 1:500 dilutions. […]"}, "[2]": {"test_system": "BCL-6/ubiquitin conjugates", "experiment": "In vivo ubiquitination assay in transfected 293T cells (anti-BCL-6 immunoprecipitation, anti-ubiquitin Western blot)", "type": "cell-based", "experimental": "as §1, with “antibodies. […]” for “antibodies.”\nTherefore, we tested whether MEK-2E mediated degradation of BCL-6 in transfected 293T cells could be inhibited by the proteasome inhibitor Cbz-LLL (MG132) (Kim and Maniatis, 1996; Palombella et al., 1994; Rock et al., 1994). […] Because the addition of multiple ubiquitins to the proteolysis substrate is a key step preceding target degradation by the proteasome, we then tested whether BCL-6/ubiquitin conjugates in vivo could be detected. […] Cell lysates were subjected to immunoprecipitation with anti-BCL-6 antibodies, and the immunoprecipitates were analyzed by Western blotting using anti-ubiquitin antibodies. […]"}, "[3]": {"test_system": "BCL-6", "experiment": "Anti-IgM treatment of Ramos cells, Western blot of BCL-6", "type": "cell-based, human", "conditions": "inhibitor 50 μM added 30 min (PD098059) or 1 hr (MG132) before anti-IgM", "experimental": "FIGS. 23A-23E. BCL-6 is phosphorylated and degraded by antigen receptor signaling in B cells. Ramos cells ([…]) were treated with anti-IgM ([…]) and harvested at different time points after treatment as indicated. (FIG. 23A) (Top three panels) Equal amounts of cell extracts were used for Western blot analysis using anti-BCL-6 (top), or anti-ERK2 (middle) antibodies, and for solid phase ERK2 kinase assays (MBP, bottom); Equal amounts of RNAs (10 μg) were used for Northern blot analysis with BCL-6 or GAPDH probes (bottom). (FIG. 23B) Hyperphosphorylated BCL-6 proteins are more unstable. […] Cell extracts were immunoprecipitated with anti-BCL-6 antibodies and analyzed by SDS-PAGE followed by autoradiography. […] Equal amounts of cell extracts were loaded on 7% (HA-BCL-6 or HA-BCL-6Ala333,343) or 10% SDS-PAGE (HA-BCL-6ZF) and the amount of exogenous BCL-6 proteins were analyzed by Western blot using anti-HA antibodies (12CA5).\nas §2"}}, "note": "“Also recorded” adds a separate entry of the source. Peptide text beside a SMILES is read from it. * marks the point of attachment. Cbz = O=C(OCc1ccccc1)*"}
{"smiles": "CC(C)C[C@@H](C=O)NC(=O)[C@H](CC(C)C)NC(=O)[C@H](CC(C)C)NC(=O)OCc1ccccc1", "note": "[MG132, N-CBZ-Leu-Leu-Leu-AL] (Cbz-Leu-Leu-Leu-aldehyde)", "values": [{"measurement": "inhibition of MEK-2E mediated BCL-6 degradation", "setting": "[1]", "result": "prevented; also recorded: completely inhibited"}, {"measurement": "multi-ubiquitinated forms of BCL-6 (BCL-6/ubiquitin conjugates)", "setting": "[2]; 293T cells transfected with BCL-6, His-Ub and MEK-2E, MG132 50 μM (lane 8)", "result": "detectable at high levels"}, {"measurement": "multi-ubiquitinated forms of BCL-6 (BCL-6/ubiquitin conjugates)", "setting": "[2]; 293T cells transfected with BCL-6 and His-Ub, no MEK-2E, MG132 50 μM (lane 7)", "result": "low levels were detectable"}, {"measurement": "inhibition of anti-IgM-induced BCL-6 degradation", "setting": "[3]", "result": "specifically inhibited; also recorded: prevented"}]}
{"smiles": "COc1cccc(-c2cc(=O)c3ccccc3o2)c1N", "note": "[PD098059]", "values": [{"measurement": "inhibition of anti-IgM-induced BCL-6 degradation", "setting": "[3]", "result": "inhibited; also recorded: prevented"}]}
{"smiles": "CSCC[C@@H](C=O)NC(=O)[C@H](CC(C)C)NC(=O)[C@H](CC(C)C)NC(C)=O", "note": "[calpain inhibitor II] (Ac-Leu-Leu-Met-aldehyde)", "values": [{"measurement": "inhibition of MEK-2E mediated BCL-6 degradation", "setting": "[1]", "result": "not"}]}
